According to ChEMBL document CHEMBL1201862, “PubChem BioAssay data set” (2004):
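96-well plates; 48 h exposure; 5 concentrations. Endpoints by linear interpolation between flanking doses. Not reached: highest tested concentration assigned. Here, GI50 denotes the concentration required for 50% inhibition of growth.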 Activity calls are given as the source filed them. Rule as the data show it: active = GI50 up to about 1.1 µM and inactive = higher.

Experiments:
Assay in all cases: inhibition of tumour cell growth, NCI panel, 48 h
MDA-N = test system: MDA-N
KM12 = test system: KM12
RXF 393 = test system: RXF 393
ACHN = test system: ACHN
K562 = test system: K562
SK-MEL-5 = test system: SK-MEL-5
UACC-62 = test system: UACC-62
CCRF-CEM = test system: CCRF-CEM
LOX IMVI = test system: LOX IMVI
Malme-3M = test system: Malme-3M
OVCAR-5 = test system: OVCAR-5
COLO 205 = test system: COLO 205
OVCAR-8 = test system: OVCAR-8
UO-31 = test system: UO-31
SF-295 = test system: SF-295
NCI-H226 = test system: NCI-H226
HCT-15 = test system: HCT-15
U-251 = test system: U-251
786-0 = test system: 786-0
A549 = test system: A549

Row | SMILES | GI50 (MDA-N) | GI50 (KM12) | GI50 (RXF 393) | GI50 (ACHN) | GI50 (K562) | GI50 (SK-MEL-5) | GI50 (UACC-62) | GI50 (CCRF-CEM) | GI50 (LOX IMVI) | GI50 (Malme-3M) | GI50 (OVCAR-5) | GI50 (COLO 205) | GI50 (OVCAR-8) | GI50 (UO-31) | GI50 (SF-295) | GI50 (NCI-H226) | GI50 (HCT-15) [µM] | GI50 (U-251) | GI50 (786-0) | GI50 (A549)
1 | Cc1[nH]c(=O)nc(S)c1C(=O)Nc1cccc2cc3ccccc3cc12 | > 10 µM (inactive) | > 100 µM (inactive) | > 100 µM (inactive) | > 100 µM (inactive) | > 100 µM (inactive) | > 100 µM (inactive) | > 100 µM (inactive) | > 100 µM (inactive) | > 100 µM (inactive) | > 100 µM (inactive) | > 100 µM (inactive) | > 100 µM (inactive) | > 100 µM (inactive) | > 100 µM (inactive) | > 100 µM (inactive) | > 100 µM (inactive) | > 100 | > 100 µM (inactive) | – | –
2 | Cc1nc2ccc(Br)cc2c(=O)n1-c1ccc(N)cc1 | > 100 µM (inactive) | > 100 µM (inactive) | 28.1 µM (inactive) | > 100 µM (inactive) | > 100 µM (inactive) | > 100 µM (inactive) | > 100 µM (inactive) | > 100 µM (inactive) | > 100 µM (inactive) | > 100 µM (inactive) | > 100 µM (inactive) | > 100 µM (inactive) | > 100 µM (inactive) | 84.5 µM (inactive) | > 100 µM (inactive) | > 100 µM (inactive) | > 100 | – | > 100 µM (inactive) | > 100 µM (inactive)
3 | Cc1ccc(C2CC(=O)CC(c3ccc(C)cc3)C23C(=O)NC(=O)NC3=O)cc1 (centres undefined) | > 100 µM (inactive) | > 100 µM (inactive) | > 100 µM (inactive) | > 100 µM (inactive) | 40.4 µM (inactive) | > 100 µM (inactive) | > 100 µM (inactive) | > 100 µM (inactive) | > 100 µM (inactive) | > 100 µM (inactive) | > 100 µM (inactive) | > 100 µM (inactive) | > 100 µM (inactive) | > 100 µM (inactive) | > 100 µM (inactive) | > 100 µM (inactive) | > 100 | > 100 µM (inactive) | > 100 µM (inactive) | –
4 | C/C(=N\N)C(CN1CCOCC1)C(c1ccccc1)c1c(O)c2ccccc2oc1=O (centres undefined) | > 100 µM (inactive) | > 81.1 µM (inactive) | 3.38 µM (inactive) | > 100 µM (inactive) | 47.6 µM (inactive) | > 64.9 µM (inactive) | – | 23.3 µM (inactive) | 26.4 µM (inactive) | > 64.7 µM (inactive) | > 100 µM (inactive) | > 44.8 µM (inactive) | > 90.6 µM (inactive) | 44.3 µM (inactive) | > 100 µM (inactive) | > 100 µM (inactive) | > 100 | > 76.9 µM (inactive) | > 95.1 µM (inactive) | > 75.2 µM (inactive)
5 | N#CCCC1(CCC#N)S(=O)(=O)OCCOS1(=O)=O | 54.3 µM (inactive) | 32 µM (inactive) | 37.1 µM (inactive) | 32.4 µM (inactive) | – | 47.9 µM (inactive) | 9.4 µM (inactive) | 28.7 µM (inactive) | 18.3 µM (inactive) | 46.1 µM (inactive) | > 100 µM (inactive) | 85.9 µM (inactive) | 89.1 µM (inactive) | 50.5 µM (inactive) | 8.99 µM (inactive) | 41.5 µM (inactive) | 36.8 | 24.7 µM (inactive) | 21.6 µM (inactive) | 48.1 µM (inactive)
6 | Cc1c(-c2ccccc2)c(C#N)c2nnn(-c3ccc([N+](=O)[O-])cc3)c(=O)n12 | 40.6 µM (inactive) | 12.7 µM (inactive) | 17.4 µM (inactive) | 22.2 µM (inactive) | 20.5 µM (inactive) | 33 µM (inactive) | 37.1 µM (inactive) | 8.43 µM (inactive) | 17.5 µM (inactive) | 24.2 µM (inactive) | 27.4 µM (inactive) | 7.35 µM (inactive) | 10.9 µM (inactive) | – | 18.7 µM (inactive) | 13.2 µM (inactive) | 20.7 | 9.93 µM (inactive) | 5.14 µM (inactive) | –
7 | COC(=O)c1cc2c3c(c1)Oc1cc(C(=O)OC)cc4c1C3c1c(cc(C(=O)OC)cc1O4)O2 | 8.22 µM (inactive) | 10.1 µM (inactive) | 0.406 µM (active) | 11.7 µM (inactive) | 11.5 µM (inactive) | 2.92 µM (inactive) | 16.9 µM (inactive) | 11.4 µM (inactive) | 5.92 µM (inactive) | 8.99 µM (inactive) | 24.5 µM (inactive) | 23.7 µM (inactive) | – | 21 µM (inactive) | 10.6 µM (inactive) | 3.82 µM (inactive) | > 32 | 12.3 µM (inactive) | 11 µM (inactive) | 12.6 µM (inactive)
8 | CC(Nc1cc(Cl)cc(Cl)c1)c1ccncc1 (centres undefined) | 21.3 µM (inactive) | – | 20.7 µM (inactive) | 22.4 µM (inactive) | 13.6 µM (inactive) | 15.4 µM (inactive) | – | 15.3 µM (inactive) | 10.9 µM (inactive) | 27.7 µM (inactive) | 16.2 µM (inactive) | 15.6 µM (inactive) | 18.5 µM (inactive) | 13.3 µM (inactive) | 18.5 µM (inactive) | 11.5 µM (inactive) | 29.1 | 17.9 µM (inactive) | 26.2 µM (inactive) | 27.8 µM (inactive)
9 | COC(=O)Cc1cc2c(cc1C(=O)c1ccc(N)cc1)OCO2 | 0.19 µM (active) | 0.488 µM (active) | 4.34 µM (inactive) | – | 0.553 µM (active) | 0.435 µM (active) | 1.11 µM (active) | 1.48 µM (inactive) | 5.45 µM (inactive) | > 100 µM (inactive) | 6.46 µM (inactive) | 1.21 µM (inactive) | 3.56 µM (inactive) | 13.6 µM (inactive) | 1.12 µM (active) | 22.2 µM (inactive) | 1.1 | 3.05 µM (inactive) | 5.58 µM (inactive) | 3.62 µM (inactive)
10 | O=c1c(-c2ccccc2)nnc2n(Cc3ccccc3)c3ccccc3n12 | > 100 µM (inactive) | > 100 µM (inactive) | 95.1 µM (inactive) | > 100 µM (inactive) | – | > 100 µM (inactive) | – | > 100 µM (inactive) | > 100 µM (inactive) | > 100 µM (inactive) | > 100 µM (inactive) | > 100 µM (inactive) | > 100 µM (inactive) | > 100 µM (inactive) | > 100 µM (inactive) | 22.5 µM (inactive) | > 100 | > 100 µM (inactive) | > 100 µM (inactive) | > 100 µM (inactive)
11 | O=C1CSC(c2ccccc2O)N1c1ccc(-c2ccc(-n3c(-c4ccccc4)nc4ccccc4c3=O)cc2)cc1 (centres undefined) | 35.5 µM (inactive) | 13.9 µM (inactive) | 35.1 µM (inactive) | – | 24.9 µM (inactive) | – | 27.7 µM (inactive) | 26.4 µM (inactive) | 25.7 µM (inactive) | 17.2 µM (inactive) | 43.1 µM (inactive) | 21.6 µM (inactive) | 24.3 µM (inactive) | 20.7 µM (inactive) | 22.5 µM (inactive) | 37.6 µM (inactive) | 33.7 | 33.7 µM (inactive) | 18.7 µM (inactive) | 21.3 µM (inactive)
